Publication PMC5778071, “Development of matrix metalloproteinase-targeted probes for lung inflammation detection with positron emission tomography” (Scientific Reports, 2018)

Assays:
recombinant human MMP-9 = molecular target: T1, recombinant human MMP-9 (Homo sapiens, UniProt P14780); assay: Competitive fluorogenic enzyme activity assay, MMP-9; format: biochemical; settings: fluorogenic substrate 5 μM, 5 nM enzyme, 30 min; read-out: IC50 toward MMP-9
T1 construct: purchased R&D Systems 911-MP
Procedure: (§1) Determination of the IC50 toward human MMP-2, MMP-9, MMP-12 and MMP-13 was performed by a competitive enzyme activity assay according to a literature procedure. The assay was performed by incubating 5 μM of the synthesized fluorogenic peptide substrate Mca-Pro-Leu-Gly-Leu-Dpa(Dnp)-Ala-Arg-NH2 with 5 nM recombinant human MMP-2 (AS72005, Anaspec Inc., CA, USA), MMP-9 (911-MP, R&D Systems, MN, USA), MMP-12 (917-MP, R&D Systems) and MMP-13 (AS72011, Anaspec) along with various concentrations of ML5, I-ML5, PFB, PFP, IPFB, and IPFP (0.2–365 nM) in a buffer (pH 7.5, 50 mM tris(hydroxymethyl)aminomethane, 10 mM calcium chloride, 150 mM sodium chloride, and 0.01% Brij-35) containing 5% dimethyl sulfoxide. The increase in fluorescence over time was measured using a SpectraMax M2e microplate reader (Molecular Devices Inc., CA, USA) with an excitation wavelength of 325 nm and an emission wavelength of 395 nm. The fluorescence intensity after 30 min was plotted as a function of the concentration of each of the compounds on a logarithmic scale to produce an inhibition curve that was subsequently fit with a sigmoidal function by a least squares method. The IC50 values were calculated from the inhibition curves using GraphPad Prism 6 (GraphPad Software, Inc., CA, USA).

MMP-12 = system: MMP-12; parameters: method as in PMID 25438884; settings: fluorogenic inhibition assay; cited from earlier work
recombinant human MMP-2 = molecular target: T2, recombinant human MMP-2 (Homo sapiens, UniProt P08253); assay: Competitive fluorogenic enzyme activity assay, MMP-2; format: biochemical; settings: fluorogenic substrate 5 μM, 5 nM enzyme, 30 min; read-out: IC50 toward MMP-2
T2 construct: purchased Anaspec Inc. AS72005
T2 sequence (P08253 110-660): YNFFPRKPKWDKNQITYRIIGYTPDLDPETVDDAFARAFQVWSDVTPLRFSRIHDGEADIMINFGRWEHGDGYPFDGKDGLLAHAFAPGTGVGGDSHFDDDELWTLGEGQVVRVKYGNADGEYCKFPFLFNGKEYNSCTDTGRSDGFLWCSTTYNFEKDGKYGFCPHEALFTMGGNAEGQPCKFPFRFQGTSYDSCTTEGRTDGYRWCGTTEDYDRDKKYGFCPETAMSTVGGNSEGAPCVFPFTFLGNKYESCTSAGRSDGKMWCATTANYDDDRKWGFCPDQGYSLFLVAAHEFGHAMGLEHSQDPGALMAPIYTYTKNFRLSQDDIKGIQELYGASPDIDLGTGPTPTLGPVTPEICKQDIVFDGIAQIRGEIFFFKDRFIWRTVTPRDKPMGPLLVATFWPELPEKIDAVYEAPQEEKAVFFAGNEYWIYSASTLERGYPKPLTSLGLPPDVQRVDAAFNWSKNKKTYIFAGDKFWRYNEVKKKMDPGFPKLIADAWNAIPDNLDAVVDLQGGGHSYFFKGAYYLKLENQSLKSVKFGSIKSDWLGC
Procedure: as §1

MMP-9 = system: MMP-9; parameters: method as in PMID 25438884; settings: fluorogenic inhibition assay; cited from earlier work
recombinant human MMP-13 = molecular target: T3, recombinant human MMP-13 (Homo sapiens, UniProt P45452); assay: Competitive fluorogenic enzyme activity assay, MMP-13; format: biochemical; settings: fluorogenic substrate 5 μM, 5 nM enzyme, 30 min; read-out: IC50 toward MMP-13
T3 construct: purchased Anaspec AS72011
Procedure: as §1

recombinant human MMP-12 = molecular target: T4, recombinant human MMP-12 (Homo sapiens, UniProt P39900); assay: Competitive fluorogenic enzyme activity assay, MMP-12; format: biochemical; settings: fluorogenic substrate 5 μM, 5 nM enzyme, 30 min; read-out: IC50 toward MMP-12
T4 construct: purchased R&D Systems 917-MP
T4 sequence (P39900 106-470): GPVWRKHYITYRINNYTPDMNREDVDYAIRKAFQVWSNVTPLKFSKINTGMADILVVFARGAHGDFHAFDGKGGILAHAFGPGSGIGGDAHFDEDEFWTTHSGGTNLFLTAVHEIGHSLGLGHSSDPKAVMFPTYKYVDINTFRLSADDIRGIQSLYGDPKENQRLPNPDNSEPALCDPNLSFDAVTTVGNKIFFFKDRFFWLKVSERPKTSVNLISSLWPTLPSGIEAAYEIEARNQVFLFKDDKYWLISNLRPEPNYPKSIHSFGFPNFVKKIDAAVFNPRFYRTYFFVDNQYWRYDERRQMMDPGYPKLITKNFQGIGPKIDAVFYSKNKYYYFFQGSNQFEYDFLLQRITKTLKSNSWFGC
Procedure: Determination of the IC50 toward human MMP-2, MMP-9, MMP-12 and MMP-13 was performed by a competitive enzyme activity assay according to a literature procedure. […] The increase in fluorescence over time was measured using a SpectraMax M2e microplate reader (Molecular Devices Inc., CA, USA) with an excitation wavelength of 325 nm and an emission wavelength of 395 nm. The fluorescence intensity after 30 min was plotted as a function of the concentration of each of the compounds on a logarithmic scale to produce an inhibition curve that was subsequently fit with a sigmoidal function by a least squares method. The IC50 values were calculated from the inhibition curves using GraphPad Prism 6 (GraphPad Software, Inc., CA, USA).

T1 sequence (P14780 94-707): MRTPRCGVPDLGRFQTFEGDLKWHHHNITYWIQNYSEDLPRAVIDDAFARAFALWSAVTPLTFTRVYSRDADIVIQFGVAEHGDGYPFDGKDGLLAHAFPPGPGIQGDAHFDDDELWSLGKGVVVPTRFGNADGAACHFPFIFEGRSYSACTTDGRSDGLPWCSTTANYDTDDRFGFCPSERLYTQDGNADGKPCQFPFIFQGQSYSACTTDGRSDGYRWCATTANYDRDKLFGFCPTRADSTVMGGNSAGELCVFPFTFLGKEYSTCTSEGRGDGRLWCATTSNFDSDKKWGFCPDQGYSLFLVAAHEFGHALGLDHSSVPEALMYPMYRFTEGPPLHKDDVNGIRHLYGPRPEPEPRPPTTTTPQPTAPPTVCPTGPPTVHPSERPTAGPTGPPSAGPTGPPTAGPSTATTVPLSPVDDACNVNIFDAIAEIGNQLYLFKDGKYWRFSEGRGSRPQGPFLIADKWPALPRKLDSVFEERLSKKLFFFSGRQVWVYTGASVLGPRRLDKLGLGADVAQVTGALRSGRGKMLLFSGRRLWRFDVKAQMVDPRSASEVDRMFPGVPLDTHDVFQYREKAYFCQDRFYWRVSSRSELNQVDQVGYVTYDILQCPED

- IC50 (recombinant human MMP-9): 37.9 ± 5.2 nM
- IC50 (recombinant human MMP-2): 9.6 ± 4.7 nM
- IC50 (recombinant human MMP-13): 22.4 ± 8.1 nM
- IC50 (recombinant human MMP-12): 2.8 ± 0.4 nM
Structure (SMILES): CC(C)C[C@H](CC(=O)NO)C(=O)N[C@@H](Cc1ccccc1)C(=O)N[C@@H](CCCCN)C(N)=O [ML5, reference compound]
- IC50 (MMP-12): 2 nM
- IC50 (MMP-9): 19.5 nM
